Where two headings read alike, the source gives them in different places.
Experiments:
[1] = tested on: green peach aphid (Myzus persicae); test: Myzus test (spray treatment); assay type: in vivo; settings: foliar, 144 h, read-out: activity (effect in %, aphids killed)
Description: Solvents: 78 parts by weight of acetone
• 1.5 parts by weight of dimethylformamide Emulsifier 0.5 part by weight of alkylaryl polyglycol ether
To produce a suitable preparation of active compound, 1 part by weight of active compound is mixed with the stated amounts of solvents and emulsifier, and the concentrate is diluted with emulsifier-containing water to the desired concentration. Discs of leaves of Chinese cabbage (Brassica pekinensis) which are infested by all stages of the green peach aphid (Myzus persicae) are sprayed with an active compound preparation of the desired concentration.
After 6 days, the effect in % is determined. 100% means that all aphids have been killed; 0% means that none of the aphids has been killed.

[2] = logP determination (neutral / HCOOH); settings: for chromatographic logP: HCOOH (formic acid)
[3] = application rate 500 g/ha, after 6 days, Chinese cabbage leaf discs

| Compound | chromatographic logP ([2]; logP (HCOOH), HCOOH) | pest or weed control at 500 g/ha [1, 3] [%] | further results |
| --- | --- | --- | --- |
| c1cncc(-n2cc(-c3cccc(-c4nccnn4)n3)cn2)c1 [Example 7, 3-[6-(1-Pyridin-3-yl-1H-pyrazol-4-yl)pyridin-2-yl]-[1,2,4]triazine] | – | – | pest or weed control at 500 g/ha ([1]; in Brassica rapa): 100%; logP (physchem): 1.32 |
| CC(=O)NC(NO)c1cccc(-c2cnn(-c3cccnc3)c2)n1 (centres unmarked) [Example 78] | 1.49 | 100 | – |
| c1cncc(-n2cc(-c3cccc(-c4ncco4)n3)cn2)c1 [Example 76] | 1.57 | 100 | logP ([2]; logP (neutral), neutral): 1.69 |
| COCC(=O)c1cccc(-c2cnn(-c3cccnc3)c2)n1 [Example 85, 2-Methoxy-1-[6-(1-pyridin-3-yl-1H-pyrazol-4-yl)pyridin-2-yl]ethanone] | – | 100 | logP ([2]; HCOOH, logP (HCOOH)): 1.66 |
| Clc1cccnc1-n1ccc(-c2cnn(-c3cccnc3)c2)n1 [Example 42] | 1.81 | 100 | – |
| COCC(F)c1cccc(-c2cnn(-c3cccnc3)c2)n1 (centres unmarked) [Example 92] | – | 90 | logP ([2]; logP (neutral), neutral): 1.98 |
| c1cncc(-n2cc(-c3cccc(C4=NOCCO4)n3)cn2)c1 [Example 55] | 1.4 | – | pest or weed control at 100 g/ha ([1]; application rate 100 g/ha, after 6 days, Chinese cabbage leaf discs): 100% |
| Brc1cccc(-c2cnn(-c3cccnc3)c2)n1 [Example 24] | 2.18 | 100 | – |
| FC(F)(F)c1ccc(-n2ccc(-c3cnn(-c4cccnc4)c3)n2)nc1 [Example 43] | 3.22 | 90 | – |
| COc1cc(OC)nc(-c2nccc(-c3cnn(-c4cccnc4)c3)n2)n1 [Example 44] | 1.56 | 100 | – |
| FC(F)(F)c1ccn(-c2cnn(-c3cccnc3)c2)n1 [Example 3, 1′-Pyridin-3-yl-3-trifluoromethyl-1′H-[1,4′]bipyrazolyl] | 2.27 | 100 | – |
| FC(F)(F)c1cccc(-c2cnn(-c3cncnc3)c2)n1 [Example 107] | 2.36 | 90 | logP ([2]; logP (neutral), neutral): 2.38 |
| CN(C)C(=O)c1nc(-c2cnn(-c3cccnc3)c2)cs1 [Example 83] | 1.51 | 100 | – |
| CS(=O)(=O)c1cccc(-c2cnn(-c3cccnc3)c2)n1 [Example 56] | 1.31 | 100 | – |
| CN1CCOC(c2cccc(-c3cnn(-c4cccnc4)c3)n2)=N1 [Example 58] | 1.54 | 100 | logP ([2]; logP (neutral), neutral): 1.68 |
| CCOc1cc(OCC)nc(-c2nccc(-c3cnn(-c4cccnc4)c3)n2)n1 [Example 82] | 2.23 | 100 | – |
| FC(F)(F)c1nccc(-c2cnn(-c3cccnc3)c2)n1 [Example 15] | 2.13 | 100 | – |
| c1cncc(-c2cnn(-c3cccnc3)c2)c1 [Example 39] | 0.39 | 100 | – |
| Ic1cncc(-n2cc(-c3cccc(-c4ncccn4)n3)cn2)c1 [Example 37] | 2.37 | 100 | – |
| FC(F)(F)C(F)(F)c1nccc(-c2cnn(-c3cccnc3)c2)n1 [Example 9, 2-(Pentafluoroethyl)-4-[1-(pyridin-3-yl)-1H-pyrazol-4-yl]pyrimidine] | – | 100 | logP ([2]; HCOOH, logP (HCOOH)): 2.7 |
| c1cncc(-n2cc(-c3cccc(C4OCCCO4)n3)cn2)c1 [Example 13] | 1.59 | 90 | – |

| Compound | chromatographic logP ([2]; logP (HCOOH), HCOOH) | pest or weed control at 500 g/ha [1, 3] [%] | further results |
| --- | --- | --- | --- |
| CCOC(=O)c1cccc(-c2cnn(-c3cccnc3)c2)n1 [Example 99] | 1.83 | 100 | logP ([2]; logP (neutral), neutral): 1.96 |
| CN1CCN(C(=O)c2cccc(-c3cnn(-c4cccnc4)c3)n2)CC1 [Example 100] | 0.46 | 100 | – |
| c1cncc(-n2cc(-c3cccc(-c4nnn[nH]4)n3)cn2)c1 [Example 96] | 1.36 | 90 | logP ([2]; logP (neutral), neutral): 0.32 |
| Nc1cccc(-c2cnn(-c3cccnc3)c2)n1 [Example 86] | 0.29 | 100 | logP ([2]; logP (neutral), neutral): 1.3 |
| CC(C)C(F)(F)c1cccc(-c2cnn(-c3cccnc3)c2)n1 [Example 66] | – | 100 | logP ([2]; logP (neutral), neutral): 3.22 |
| CC(C)(C)OC(=O)Nc1cccc(-c2cnn(-c3cccnc3)c2)n1 [Example 27] | 2.87 | 100 | – |
| Cc1cc(C)n(-c2cccc(-c3cnn(-c4cccnc4)c3)n2)n1 [Example 21] | 2.64 | 100 | – |
| c1cncc(-n2cc(-c3cccc(-n4ccnn4)n3)cn2)c1 [Example 61] | 1.68 | 90 | – |
| Fc1cncc(-n2cc(-c3cccc(C4OCCCO4)n3)cn2)c1 [Example 73] | 2.12 | 100 | logP ([2]; logP (neutral), neutral): 2.13 |
| N#Cc1cccc(-c2cnn(-c3cccnc3)c2)n1 [Example 30, 6-(1-Pyridin-3-yl-1H-pyrazol-4-yl)pyridine-2-carbonitrile] | – | – | pest or weed control at 500 g/ha ([1]; in Brassica rapa): 100%; logP ([2]; logP (neutral), neutral): 1.79; logP (neutral) ([2]; neutral): 1.73 |
| Cn1cnc(-c2cccc(-c3cnn(-c4cccnc4)c3)n2)n1 [Example 6, 2-(1-Methyl-1H-[1,2,4]triazol-3-yl)-6-(1-pyridin-3-yl-1H-pyrazol-4-yl)pyridine] | – | 100 | logP ([2]; logP (neutral), neutral): 1.29 |
| CC(F)(F)c1ccc(-c2cnn(-c3cccnc3)c2)nc1 [Example 40] | 2.04 | 90 | – |
| FC(F)c1cccc(-c2cnn(-c3cccnc3)c2)n1 [Example 63] | 2.02 | 100 | – |
| COc1cccc(-c2cnn(-c3cccnc3)c2)n1 [Example 38] | 2.12 | 100 | – |
| c1cncc(-n2cc(-c3cnn(-c4cccnc4)c3)cn2)c1 [Example 112] | 1.37 | 80 | – |
| c1cncc(-n2cc(-c3cccc(C4OCC5(CC5)CO4)n3)cn2)c1 [Example 60] | 1.97 | 100 | logP ([2]; logP (neutral), neutral): 2.12 |
| FC(F)(F)c1ccnc(-c2cnn(-c3cccnc3)c2)n1 [Example 35] | 2.23 | 80 | – |
| CC(C)C(=O)c1cccc(-c2cnn(-c3cccnc3)c2)n1 [Example 67] | – | 100 | logP ([2]; logP (neutral), neutral): 2.84 |
| Cc1ccn(-c2cccc(-c3cnn(-c4cccnc4)c3)n2)n1 [Example 77] | 2.51 | 100 | – |
| CC1(c2cccc(-c3cnn(-c4cccnc4)c3)n2)OCCCO1 [Example 69] | 1.78 | 100 | – |
| ClC1(c2cccc(-c3cnn(-c4cccnc4)c3)n2)CC1 [Example 65] | 3.22 | 90 | – |

Now from value to molecule, other results behind:

| chromatographic logP ([2]; logP (HCOOH), HCOOH) | Compound | pest or weed control at 500 g/ha [1, 3] [%] | further results |
| --- | --- | --- | --- |
| 2.51 | Cc1nn(-c2cccnc2)cc1-n1ccc(C(F)(F)F)n1 [Example 26] | 100 | – |
| 1.63 | c1cncc(-n2cc(-c3cccc(-n4nccn4)n3)cn2)c1 [Example 54] | 100 | – |
| 2.37 | CC1CC(C)OC(c2cccc(-c3cnn(-c4cccnc4)c3)n2)O1 (centres unmarked) [Example 71] | 100 | – |
| 1.64 | O=[N+]([O-])c1cnc(-n2ccc(-c3cnn(-c4cccnc4)c3)n2)nc1 [Example 102] | 100 | – |
| 1.19 | c1ccc(-c2ccn(-c3cnn(-c4cccnc4)c3)n2)nc1 [Example 23] | 100 | – |
| 2.51 | FC(F)(F)c1cccc(-c2cnn(-c3cccnc3)c2)n1 [Example 4, 2-[1-(Pyridin-3-yl)-1H-pyrazol-4-yl]-6-(trifluoromethyl)pyridine] | 100 | – |
| 1.52 | FC(F)CNc1cccc(-c2cnn(-c3cccnc3)c2)n1 [Example 48] | 100 | – |
| 2.16 | c1cncc(-n2cc(-c3cccc(-c4noc(C5CC5)n4)n3)cn2)c1 [Example 62] | 100 | – |
| 1.66 | Cc1nc(-c2cccc(-c3cnn(-c4cccnc4)c3)n2)no1 [Example 70] | 100 | – |
| 1.81 | Fc1cncc(-n2cc(-c3cccc(-c4ncccn4)n3)cn2)c1 [Example 14] | 90 | – |
| 0.79 | c1cncc(-n2cc(-c3cc[nH]n3)cn2)c1 [Example 98, 1′-(Pyridin-3-yl)-1H,1′H-3,4′-bipyrazole] | 100 | logP (HCOOH) ([2]; HCOOH): 0.78 |
| 1.91 | N#Cc1cncc(-n2cc(-c3cccc(-c4ncccn4)n3)cn2)c1 [Example 88] | 100 | – |
| 2.71 | Clc1ccc(-c2cnn(-c3cccnc3)c2)cc1 [Example 51] | 90 | – |
| 1.32 | c1cncc(-n2cc(-c3nccs3)cn2)c1 [Example 95] | 90 | – |
| 0.64 | Nc1cccc(-c2cnn(-c3cncc(F)c3)c2)n1 [Example 106] | 90 | logP ([2]; logP (neutral), neutral): 1.59 |
